Results: patent US5422341A, “Motilin-like polypeptides with gastrointestinal motor stimulating activity” (Ohmeda Pharmaceutical Products Division Inc., priority 1993, dated 1995)
Where two headings read alike, the source gives them in different places. Square brackets hold non-standard residues; d marks the D form. Peptide text beside a SMILES is read from it. * marks the point of attachment. X1 = C[N+](C)(C)[C@@H](Cc1ccccc1)C(=O)*; NMe2Phe = CN(C)[C@@H](Cc1ccccc1)C(=O)*; NMeF = CN[C@@H](Cc1ccccc1)C(=O)O

What was measured:
[1] = molecular target: segments of rabbit duodenum (Oryctolagus cuniculus, UniProt G1T803); test: Rabbit duodenal smooth muscle strip tissue bath assay; format: cell-based; settings: negative logarithm of the dose giving 50% of the maximal response to motilin; isotonic contraction of rabbit duodenum segments
In short: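 Isotonic contraction of rabbit duodenal segments after 1 h equilibration and 10^-4 M acetylcholine challenge; cumulative compound curve over 10^-11 to 10^-4 M, then 10^-7 M motilin. Runs discarded if final acetylcholine response differed >5%. EC50 at 50% of maximal motilin response, reported as pEC50.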

motilin receptor = molecular target: T1, motilin receptor (Oryctolagus cuniculus, UniProt G1T803); test: Determination of motilin receptor binding affinity (displacement of [125I-Tyr7, Nle13]motilin(porcine)); parameters: species or system rabbit
T1 construct: from tissue; host or cells: rabbit antral smooth muscle membranes
Protocol: The motilin receptor binding affinity of the peptides of this invention was determined by using the general procedure of Bormans, Peelers and Vantrappen, Regul. […] Fitting was performed using the iterative least-squares procedure of the SAS-software package (SAS Institute, Inc., Cary, N.C., USA).

[2] = test system: canine gastrointestinal tract; test: Contractile activity in the canine gastrointestinal tract; format: in vivo, dog; settings: anesthetized dogs, intra-arterial injection to a duodenal segment; amount giving 50% of the calibration response to field stimulation
Protocol: Mongrel dogs of either sex were anesthetized with sodium pentobarbital 65 mg/kg intravenously. A mid-line incision was made in the abdomen. A duodenal segment was located, the terminal arteries to that segment were identified, and the closest possible artery of the appropriate size was rubbed clean of fat and fascia. A needle of suitable diameter was bent at an angle and the tip inserted in the cleaned artery. The needle was held in position in the artery for approximately 30 seconds until vascular spasm has relaxed and then a catheter assembly was inserted into the artery and tied into position with 000 silk sutures. The fine polyethylene catheter (10-15 cm) was cut to a point at one end with a needle inserted at the other end. The hub of the needle was fitted with a 3-way stopcock and the catheter assembly was filled with heparinized Krebs Ringer bicarbonate containing 10 mM glucose. A bolus of Krebs (free of air) was injected into the arterial catheter and the distribution of blanching in the segment noted. If the area was too large, collateral arteries may be tied off as long as circulation to the area was maintained. A Bass type strain gauge was then sutured to the serosa, and oriented so that circular muscle contractions can be recorded on a Beckman R611 dynograph. Silver wire electrodes were inserted subserosally on either side of the strain gauge and were connected through stimulus isolation units to a Grass S88 electrical stimulator. Electrical field stimulation was applied at 40 V 0.5 ms and 5 pps and the amplitude of the pen recorder was set to contain the contractile response.
All peptides to be injected were dissolved in Krebs and serial dilutions were prepared so that for any concentration the maximum volume to be injected was 1 ml. All solutions except stock Krebs were held on ice for the day of the experiment and discarded at the end of the day. For determination of a dose-response curve, the site was first injected with a bolus of approximately 1 ml of heparinized Krebs to provide a flush control. Peptide agonists (in volumes of 1 ml flushed with 1 ml of Krebs) were injected in logarithmic increments until a response which was maximal in amplitude was obtained. The injection site was then flushed with Krebs containing 0.1% BSA to displace any peptide remaining in the arterial line. For peptides acting at the motilin receptor, care was taken not to inject supramaximal doses as these will induce tachyphylaxis. Therefore, as responses become apparent, 0.3 or 0.5 log unit increments were used. A site was used for a dose-response determination only every 1/2 to 1 hour.
The amplitude of the calibration response to field stimulation in each site was measured and used as 100% for that site. The amplitude of the response to the agonist at each dose was determined, calculated as a % of the calibration response and plotted against the concentration. The ED50 of the response represents the amount of agonist required to produce a response which was 50% of the calibration response.

[3] = format: in vitro ADME, hog; settings: pH 7
Protocol: Like most small linear polypeptides, motilin is believed to be metabolized lo by the brush border cells of the kidney. Therefore, kidney homogenate was chosen as the model system for assessing the relative in vivo biostability of the peptides of this invention. All peptides to be studied were incubated in hog kidney (Pel Freeze, Inc., Rogers, Ark.) (2% w/v; final volume=4 ml; buffer=HEPES pH 7.0) at 25° C. Both initial substrate concentration and internal standard (Fmoc-Gly) concentration were 0.5 mg/ml. In order to determine suitable incubation times and sampling intervals, two experiments were conducted with each polypeptide. The first run served as a rough estimate of peptide stability. All sampling was performed in duplicate. Sample volume was 180 μl.
Sample clean-up was performed by addition of 20 μl of 100% TCA (final volume=200 μl; final TCA concentration=10%). The sample was vortexed for from 5 to 10 seconds to ensure equilibration, then centrifuged to spin out the precipitated proteins. Analysis was carried out on a Waters HPLC system with a WISP autoinjector, a 5μ Vydac C-18 analytical column, and a Waters 481 UV detector set at 214 nm. Injection volume was 80 μl. Initial solvent conditions were […] in Milli-Q water with a 35 minute gradient running to 63% acetonitrile/37% (0.1%) TFA at 1 ml/min.
Polypeptide substrate and metabolite peaks were ratioed to the internal standard and the duplicate sample ratios were averaged. The avenge ratio for the peptide substrate was expressed as a percentage and plotted versus time. First-order kinetics was assumed for data treatment. The rate of disappearance of the substrate was calculated using the Enzfitter program (Biosoft). Relative half-lives were determined from the relationship: […]

[4] = negative logarithm of the concentration displacing 50% of [125I-Tyr7, Nle13]motilin(porcine) from rabbit antral smooth muscle membranes, read-out: pIC50 (converted)

T1 sequence (G1T803 1-400): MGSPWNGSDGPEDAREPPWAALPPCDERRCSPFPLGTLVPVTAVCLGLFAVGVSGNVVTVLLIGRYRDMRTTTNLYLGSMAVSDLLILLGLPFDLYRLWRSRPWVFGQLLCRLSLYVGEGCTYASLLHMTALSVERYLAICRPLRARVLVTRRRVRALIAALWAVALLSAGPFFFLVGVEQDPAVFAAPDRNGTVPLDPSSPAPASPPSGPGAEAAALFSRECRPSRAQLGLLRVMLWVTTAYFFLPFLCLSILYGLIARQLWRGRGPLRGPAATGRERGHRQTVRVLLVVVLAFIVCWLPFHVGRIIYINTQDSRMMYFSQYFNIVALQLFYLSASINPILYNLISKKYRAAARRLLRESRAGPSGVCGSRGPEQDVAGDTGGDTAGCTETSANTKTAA
Chain of segments of rabbit duodenum (G1T803 1-400): as above

pEC50 [1]	IC50 (motilin receptor; [4]) [nM]	T1/2 [3]	Compound	ED50 [2] [nmol]	IC50 (motilin receptor; pIC50, negative logarithm of the concentration displacing 50% of [125I-Tyr7, Nle13]motilin(porcine) from rabbit antral smooth muscle membranes) [nM]
7.74	0.479	20	CC[C@H](C)[C@H](NC(=O)[C@@H]1CCCN1C(=O)[C@@H](NC(=O)[C@H](Cc1ccccc1)NC)C(C)C)C(=O)N[C@@H](Cc1ccccc1)C(=O)N[C@H](C(=O)N[C@@H](Cc1ccc(O)cc1)C(=O)NCC(=O)N[C@@H](CCC(=O)O)C(=O)N[C@@H](CC(C)C)C(=O)N[C@@H](CCC(N)=O)C(=O)N[C@@H](CCCNC(=N)N)C(=O)N[C@@H](CC(C)C)C(=O)N[C@@H](CCCCN)C(N)=O)[C@@H](C)O (H-[NMeF]VPIFTYGELQRLK-NH2)	0.025	–
–	–	131.9	CC[C@H](C)[C@H](NC(=O)[C@@H]1CCCN1C(=O)[C@@H](NC(=O)[C@H](Cc1ccccc1)[N+](C)(C)C)C(C)C)C(=O)N[C@@H](Cc1ccccc1)C(=O)N[C@H](C(=O)N[C@@H](Cc1ccc(O)cc1)C(=O)NCC(=O)N[C@@H](CCC(=O)O)C(=O)N[C@@H](CC(C)C)C(=O)N[C@@H](C)C(=O)N[C@H](CCCNC(=N)N)C(=O)N[C@@H](CC(C)C)C(=O)N[C@@H](CCC(N)=O)C(N)=O)[C@@H](C)O (X1-VPIFTYGELA[dR]LQ-NH2)	0.026	–
7.64	2.63	12.8	CC[C@H](C)[C@H](NC(=O)[C@@H]1CCCN1C(=O)[C@@H](NC(=O)[C@H](Cc1ccccc1)NC)C(C)C)C(=O)N[C@@H](Cc1ccccc1)C(=O)N[C@H](C(=O)N[C@@H](Cc1ccc(O)cc1)C(=O)NCC(=O)N[C@@H](CCC(=O)O)C(=O)N[C@@H](CC(C)C)C(=O)N[C@@H](CCC(N)=O)C(=O)N[C@@H](CCCNC(=N)N)C(=O)N[C@@H](CC(C)C)C(=O)N[C@@H](CCC(N)=O)C(=O)O)[C@@H](C)O [[N-MePhe^1, Leu^13]pMOT(1-14)] (H-[NMeF]VPIFTYGELQRLQ-OH)	–	–
8.01	0.468	34.3	CC[C@H](C)[C@H](NC(=O)[C@@H]1CCCN1C(=O)[C@@H](NC(=O)[C@H](Cc1ccccc1)NC)C(C)C)C(=O)N[C@@H](Cc1ccccc1)C(=O)N[C@H](C(=O)N[C@@H](Cc1ccc(O)cc1)C(=O)NCC(=O)N[C@@H](CCC(=O)O)C(=O)N[C@@H](CC(C)C)C(=O)N[C@@H](C)C(=O)N[C@H](CCCNC(=N)N)C(=O)N[C@@H](CC(C)C)C(=O)N[C@@H](CCCCN)C(N)=O)[C@@H](C)O (H-[NMeF]VPIFTYGELA[dR]LK-NH2)	0.30	–
7.71	1.91	30	CC[C@H](C)[C@H](NC(=O)[C@@H]1CCCN1C(=O)[C@@H](NC(=O)[C@H](Cc1ccccc1)NC)C(C)C)C(=O)N[C@@H](Cc1ccccc1)C(=O)N[C@H](C(=O)N[C@@H](Cc1ccc(O)cc1)C(=O)NCC(=O)N[C@@H](CCC(=O)O)C(=O)N[C@@H](CC(C)C)C(=O)N[C@@H](CCC(N)=O)C(=O)N[C@H](CCCNC(=N)N)C(=O)N[C@@H](CC(C)C)C(=O)N[C@@H](CCC(N)=O)C(=O)O)[C@@H](C)O [[N-MePhe^1, D-Arg^12, Leu^13]pMOT(1-14)] (H-[NMeF]VPIFTYGELQ[dR]LQ-OH)	0.40	–
7.69	1.45	47	CC[C@H](C)[C@H](NC(=O)[C@@H]1CCCN1C(=O)[C@@H](NC(=O)[C@H](Cc1ccccc1)N(C)C)C(C)C)C(=O)N[C@@H](Cc1ccccc1)C(=O)N[C@H](C(=O)N[C@@H](Cc1ccc(O)cc1)C(=O)NCC(=O)N[C@@H](CCC(=O)O)C(=O)N[C@@H](CC(C)C)C(=O)N[C@@H](C)C(=O)N[C@H](CCCNC(=N)N)C(=O)N[C@@H](CC(C)C)C(=O)N[C@H](CCCCN)C(N)=O)[C@@H](C)O (NMe2Phe-VPIFTYGELA[dR]L[dK]-NH2)	0.35	–
–	–	95	CC[C@H](C)[C@H](NC(=O)[C@@H]1CCCN1C(=O)[C@@H](NC(=O)[C@H](Cc1ccccc1)[N+](C)(C)C)C(C)C)C(=O)N[C@@H](Cc1ccccc1)C(=O)N[C@H](C(=O)N[C@@H](Cc1ccc(O)cc1)C(=O)NCC(=O)N[C@@H](CCC(=O)O)C(=O)N[C@@H](CC(C)C)C(=O)N[C@@H](CCC(N)=O)C(=O)N[C@H](CCCNC(=N)N)C(=O)N[C@@H](CC(C)C)C(=O)N[C@@H](CCC(N)=O)C(N)=O)[C@@H](C)O (X1-VPIFTYGELQ[dR]LQ-NH2)	0.017	–
7.39	1.95	104	CC[C@H](C)[C@H](NC(=O)[C@@H]1CCCN1C(=O)[C@@H](NC(=O)[C@H](Cc1ccccc1)[N+](C)(C)C)C(C)C)C(=O)N[C@@H](Cc1ccccc1)C(=O)N[C@H](C(=O)N[C@@H](Cc1ccc(O)cc1)C(=O)NCC(=O)N[C@@H](CCC(=O)O)C(=O)N[C@@H](CC(C)C)C(=O)N[C@@H](CCC(N)=O)C(=O)N[C@H](CCCNC(=N)N)C(=O)N[C@@H](CC(C)C)C(=O)N[C@H](CCC(N)=O)C(N)=O)[C@@H](C)O (X1-VPIFTYGELQ[dR]L[dQ]-NH2)	–	–
–	–	41	CC[C@H](C)[C@H](NC(=O)[C@@H]1CCCN1C(=O)[C@@H](NC(=O)[C@H](Cc1ccccc1)NC)C(C)C)C(=O)N[C@@H](Cc1ccccc1)C(=O)N[C@H](C(=O)N[C@@H](Cc1ccc(O)cc1)C(=O)NCC(=O)N[C@@H](CCC(=O)O)C(=O)N[C@@H](CC(C)C)C(=O)N[C@@H](CCC(N)=O)C(=O)N[C@H](CCCNC(=N)N)C(=O)N[C@@H](CC(C)C)C(=O)N[C@@H](CCCCN)C(N)=O)[C@@H](C)O (H-[NMeF]VPIFTYGELQ[dR]LK-NH2)	0.025	–

Compound	pEC50 [1]	IC50 (motilin receptor; [4]) [nM]	T1/2 [3]	ED50 [2] [nmol]	IC50 (motilin receptor; pIC50, negative logarithm of the concentration displacing 50% of [125I-Tyr7, Nle13]motilin(porcine) from rabbit antral smooth muscle membranes) [nM]
CC[C@H](C)[C@H](NC(=O)[C@@H]1CCCN1C(=O)[C@@H](NC(=O)[C@@H](N)Cc1ccccc1)C(C)C)C(=O)N[C@@H](Cc1ccccc1)C(=O)N[C@H](C(=O)N[C@@H](Cc1ccc(O)cc1)C(=O)NCC(=O)N[C@@H](CCC(=O)O)C(=O)N[C@@H](CC(C)C)C(=O)N[C@@H](CCC(N)=O)C(=O)N[C@@H](CCCNC(=N)N)C(=O)N[C@@H](CC(C)C)C(=O)N[C@@H](CCC(N)=O)C(=O)N[C@@H](CCC(=O)O)C(=O)N[C@@H](CCCCN)C(=O)N[C@@H](CCC(=O)O)C(=O)N[C@@H](CCCNC(=N)N)C(=O)N[C@@H](CC(N)=O)C(=O)N[C@@H](CCCCN)C(=O)NCC(=O)N[C@@H](CCC(N)=O)C(=O)O)[C@@H](C)O [[Leu^13]pMOT(1-22), reference compound]	8.13	–	30.2	0.17	0.661
